According to patent publication US20210213037A1, “METHODS FOR TREATING FIBROSIS” (CHILDREN'S HOSPITAL MEDICAL CENTER, priority 2018, published 2021):

Experiments:
[1] = tested on: idiopathic pulmonary fibrosis; conditions: cited from earlier work
TGFα mice = experiment: TGFα-induced pulmonary fibrosis mouse model, therapeutic intervention in established fibrosis; type: in vivo; conditions: vs vehicle
Source text: Mouse model of TGFα-induced pulmonary fibrosis and Barasertib treatment therapy The generation of TGFα-overexpressing mice has been described previously (HARDIE et al. (2004) “Conditional expression of transforming growth factor-alpha in adult mouse lung causes pulmonary fibrosis” Am J Physiol Lung Cell Mol Physiol, Vol. 286, pp. L741-749, which is herein incorporated by reference in its entirety). Clara cell-specific protein-rtTA^+/− (CCSP-rtTA) mice were crossed with heterozygous (TetO)7-cmv TGFα mice to produce bitransgenic CCSP/TGFα mice. To induce TGFα expression, the transgenic mice were fed with doxycycline (Dox)-containing chow (62.5 mg/kg) (MADALA et al. (2014) “Inhibition of the alphavbeta6 integrin leads to limited alteration of TGF-alpha-induced pulmonary fibrosis” Am J Physiol Lung Cell Mol Physiol, Vol. 306, pp. L726-735, which is herein incorporated by reference in its entirety). They were housed under specific pathogen-free conditions and handled in accordance with protocols approved by the Institutional Animal Care and Use Committee of the Cincinnati Children's Hospital Research Foundation. Barasertib (Selleckchem, Houston, Tex.) was prepared in fresh vehicle (5% DMSO and 50% PEG in PBS) every day before treatment. […]

Row | Structure (SMILES) | effect on mortality [1] | fibroproliferation (Ki67 immunostaining of lung sections) (TGFα mice; Dox two weeks, then barasertib 25 or 50 mg/kg QD or nintedanib 60 mg/kg QD for 5 days, data not shown) | expression of ECM genes (Co11α, FN1; RT-PCR) (TGFα mice; barasertib 25 or 50 mg/kg QD or nintedanib 60 mg/kg QD i.p., FIG. 14) | effect on respiratory symptoms [1]
1 | COC(=O)c1ccc2c(c1)NC(=O)/C2=C(\Nc1ccc(N(C)C(=O)CN2CCN(C)CC2)cc1)c1ccccc1 [nintedanib] | neither pirfenidone nor nintedanib had any effect | reduction in fibroproliferation | attenuated | –
2 | Cc1ccc(=O)n(-c2ccccc2)c1 [pirfenidone] | neither pirfenidone nor nintedanib had any effect | – | – | no effect
